Assay results taken from US10669258B2, “3-sulfonyl-5-aminopyridine-2,4-diol APJ agonists” (BRISTOL-MYERS SQUIBB COMPANY, priority 2016, dated 2020).

The compounds below were run against T1, human APJ receptor (Homo sapiens, UniProt P35414) (assay: Intracellular cAMP accumulation assay (APJ hcAMP, HTRF)). Details: HEK293 cells stably expressing human APJ receptor; inhibition of forskolin-mediated cAMP production; Table 1; read-out: hAPJ cAMP EC50 Potency range.
T1 construct: expressed in transfected cells; host or cells: HEK293
T1 sequence (P35414 1-380): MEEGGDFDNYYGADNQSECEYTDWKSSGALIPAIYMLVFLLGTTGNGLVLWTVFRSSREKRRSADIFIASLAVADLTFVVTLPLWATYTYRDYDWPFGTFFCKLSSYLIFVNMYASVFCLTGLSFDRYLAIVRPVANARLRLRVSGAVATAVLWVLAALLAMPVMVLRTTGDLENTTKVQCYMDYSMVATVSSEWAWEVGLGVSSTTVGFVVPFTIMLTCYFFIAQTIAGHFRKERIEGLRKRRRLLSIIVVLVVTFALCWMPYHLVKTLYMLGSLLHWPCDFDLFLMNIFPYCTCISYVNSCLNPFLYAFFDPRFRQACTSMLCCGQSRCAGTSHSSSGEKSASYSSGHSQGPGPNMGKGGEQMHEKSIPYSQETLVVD
Format: cell-based
Protocol: Intracellular cAMP Accumulation Assay
HEK293 cells stably expressing human APJ receptor were used to assess the activity of compounds. Cultured cells were detached and resuspended in the cAMP Homogeneous Time-Resolved Fluorescence (HTRF) assay buffer (Cisbio cat; #62AM4PEJ). The assay was performed in 384-well assay plates (Perkin-Elmer; cat #6008289) according to assay protocol provided by the manufacturer. Serial dilutions of a compound together with assay buffer containing […] IBMX and 2 μM forskolin were added to each well containing 5,000 cells and incubated for 30 minutes at room temperature. Subsequently, cAMP D2 reagent was added in the lysis buffer followed by the EuK antibody (Cisbio; cat #62AM4PEJ) and incubated for 60 min. The fluorescence emission ratio was measured using fluorometer. The intracellular cAMP concentrations (compound-stimulated inhibition of forskolin-mediated cAMP production) were calculated by extrapolation from a standard curve using known cAMP concentrations. The EC50 values were obtained by fitting the data to a sigmoidal concentration-response curve with variable slope. The maximal achievable inhibition of forskolin-induced cAMP levels (Ymax) for each compound was expressed as relative percentage of inhibition attained using pyroglutamated apelin-13 ((Pyr1)apelin-13) peptide, which was set to 100%.
The examples disclosed below were tested in the APJ in vitro assays described above and were found having human APJ cyclic AMP (hcAMP) activity. The EC50 value of each compound is presented at the end of the example description.
The biological activity of the exemplified compounds of this invention determined by the assay described above is shown at the end of each example.

EC50 [nM]	Structure (SMILES)
0.01 to 10	CCCCc1nc(O)c(S(=O)(=O)c2ccc(-c3ccc(F)nc3C)cc2)c(O)c1N(CC)c1cc(C)cc(C)c1 [Example 135, 6-butyl-5-((3,5-dimethylphenyl)(ethyl)amino)-3-((4-(6-fluoro-2-methylpyridin-3-yl)phenyl)sulfonyl)pyridine-2,4-diol]
10 to 100	CCCCc1nc(O)c(S(=O)(=O)c2ccc(-c3ccc(F)nc3C)cc2)c(O)c1N1CCCCC1c1ccccc1 (centres unmarked) [Example 126, 6-butyl-3-((4-(6-fluoro-2-methylpyridin-3-yl)phenyl)sulfonyl)-5-(2-phenylpiperidin-1-yl)pyridine-2,4-diol]
0.01 to 10	CCCCc1nc(O)c(S(=O)(=O)c2ccc(-c3ccncc3C)cc2)c(O)c1N(C)c1cccc(F)c1 [Example 104, 6-butyl-5-((3-fluorophenyl)(methyl)amino)-3-((4-(3-methylpyridin-4-yl)phenyl)sulfonyl)pyridine-2,4-diol]
10 to 100	CCCCc1nc(O)c(C(=O)N2CC[C@@H](c3ccccc3)C2)c(O)c1N(CCC)c1ccccc1 [Example 068, (S)-(6-butyl-2,4-dihydroxy-5-(phenyl(propyl)amino)pyridin-3-yl)(3-phenylpyrrolidin-1-yl)methanone]
0.01 to 10	CCCCc1nc(O)c(S(=O)(=O)c2ccc(-c3ccc(F)nc3C)cc2)c(O)c1N1CCCc2ccccc21 [Example 021, 6-butyl-5-(3,4-dihydroquinolin-1(2H)-yl)-3-((4-(6-fluoro-2-methylpyridin-3-yl)phenyl)sulfonyl)pyridine-2,4-diol]
0.01 to 10	CCN(c1ccccc1)c1c(-c2ccn(C)n2)nc(O)c(S(=O)(=O)c2ccc(-c3ccccc3C(=O)N(C)C)cc2)c1O [Example 060, 4′-((5-(ethyl(phenyl)amino)-2,4-dihydroxy-6-(1-methyl-1H-pyrazol-3-yl)pyridin-3-yl)sulfonyl)-N,N-dimethyl-[1,1′-biphenyl]-2-carboxamide]
10 to 100	CCCCc1nc(O)c(S(=O)(=O)c2ccc(C3CC3)cc2)c(O)c1N(C)c1ccc(C)cc1 [Example 100, 6-butyl-3-((4-cyclopropylphenyl)sulfonyl)-5-(methyl(p-tolyl)amino)pyridine-2,4-diol]
0.01 to 10	CCCCc1nc(O)c(S(=O)(=O)c2ccc(-n3cc(C)ccc3=O)cc2)c(O)c1N(C)c1ccc(C)cc1 [Example 098, 1-(4-((6-butyl-2,4-dihydroxy-5-(methyl(p-tolyl)amino)pyridin-3-yl)sulfonyl)phenyl)-5-methylpyridin-2(1H)-one]
0.01 to 10	CCCCc1nc(O)c(S(=O)(=O)c2ccc(-c3ccccc3C(=O)NC3CC3)cc2)c(O)c1N(C)c1ccccc1C [Example 208, 4′-((6-butyl-2,4-dihydroxy-5-(methyl(o-tolyl)amino)pyridin-3-yl)sulfonyl)-N-cyclopropyl-[1,1′-biphenyl]-2-carboxamide]
0.01 to 10	CCCCc1nc(O)c(S(=O)(=O)c2ccc(-c3ccccc3C(=O)NC)cc2)c(O)c1N(C)c1ccccc1F [Example 176, 4′-((6-butyl-5-((2-fluorophenyl)(methyl)a-mino)-2,4-dihydroxypyridin-3-yl)sulfonyl)-N-methyl-[1,1′-biphenyl]-2-carboxamide]
0.01 to 10	CCN(c1cccc(C#N)c1)c1c(-c2ccn(C)n2)nc(O)c(S(=O)(=O)c2ccc(-c3ccccc3C(N)=O)cc2)c1O [Example 216, 4′-((5-((3-cyanophenyl)(ethyl)ami-no)-2,4-dihydroxy-6-(1-methyl-1H-pyrazol-3-yl)pyridin-3-yl)sulfonyl)-[1,1′-biphenyl]-2-carboxamide]
0.01 to 10	CCCCc1nc(O)c(S(=O)(=O)c2ccc(-c3ccncc3C)cc2)c(O)c1N(C)c1ccccc1F [Example 112, 6-butyl-5-((2-fluorophenyl)(methyl)amino)-3-((4-(3-methylpyridin-4-yl)phenyl)sulfonyl)pyridine-2,4-diol]
10 to 100	CCCCc1nc(O)c(S(=O)(=O)c2ccc(-c3cccnc3C)cc2)c(O)c1N(C)c1ccc(OC)cc1 [Example 035, 6-butyl-5-((4-methoxyphenyl)(methyl)amino)-3-((4-(2-methylpyridin-3-yl)phenyl)sulfonyl)pyridine-2,4-diol]
10 to 100	CCCCc1nc(O)c(S(=O)(=O)c2ccc(-c3ccc(F)nc3C)cc2)c(O)c1N(C)c1ccc(OC)cc1 [Example 032, 6-butyl-3-((4-(6-fluoro-2-methylpyridin-3-yl)phenyl)sulfonyl)-5-((4-methoxyphenyl)(methyl)amino)pyridine-2,4-diol]
10 to 100	CCCCc1nc(O)c(S(=O)(=O)c2ccc(-c3cccnc3C)cc2)c(O)c1N(CC)c1cc(C)cc(C)c1 [Example 183, 6-butyl-5-((3,5-di-methylphenyl)(ethyl)a-mino)-3-((4-(2-methylpyridin-3-yl)phenyl)sulfonyl)pyri-dine-2,4-diol]
0.01 to 10	CCN(c1ccccc1)c1c(-c2ccn(C)n2)nc(O)c(S(=O)(=O)c2ccc(-c3ccncc3C)cc2)c1O [Example 064, 5-(ethyl(phenyl)amino)-6-(1-methyl-1H-pyrazol-3-yl)-3-((4-(3-methylpyridin-4-yl)phenyl)sulfonyl)pyridine-2,4-diol]
0.01 to 10	CCN(c1ccccc1)c1c(-c2cnn(C)c2)nc(O)c(S(=O)(=O)c2ccc(-c3ccc(F)nc3C)cc2)c1O [Example 152, 5-(ethyl(phenyl)amino)-3-((4-(6-fluoro-2-methylpyridin-3-yl)phenyl)sulfonyl)-6-(1-methyl-1H-pyrazol-4-yl)pyridine-2,4-diol]
0.01 to 10	CCN(c1cccc(C#N)c1)c1c(-c2ccn(C)n2)nc(O)c(S(=O)(=O)c2ccc(-c3ccccc3C(=O)NC)cc2)c1O [Example 214, 4′-((5-((3-cyanophenyl)(ethyl)ami-no)-2,4-dihydroxy-6-(1-methyl-1H-pyrazol-3-yl)pyridin-3-yl)sulfonyl)-N-methyl-[1,1′-biphenyl]-2-carboxamide]
0.01 to 10	CCN(c1ccccc1)c1c(-c2ccn(C)n2)nc(O)c(S(=O)(=O)c2ccc(-c3ccccc3C(N)=O)cc2)c1O [Example 148, 4′-((5-(ethyl(phenyl)amino)-2,4-dihydroxy-6-(1-methyl-1H-pyrazol-3-yl)pyridin-3-yl)sulfonyl)-[1,1′-biphenyl]-2-carboxamide]
0.01 to 10	CCN(c1ccccc1)c1c(-c2cnc(C)s2)nc(O)c(S(=O)(=O)c2ccc(-c3ccccc3C(=O)NC)cc2)c1O [Example 192, 4′-((5-(ethyl(phenyl)amino)-2,4-dihydroxy-6-(2-methylthiazol-5-yl)pyridin-3-yl)suflonyl)-N-methyl-[1,1′-biphenyl]-2-carboxamide]
0.01 to 10	CCCCc1nc(O)c(S(=O)(=O)c2ccc(-c3cccnc3C)cc2)c(O)c1N(C)c1cccc(C#N)c1 [Example 119, 3-((2-butyl-4,6-dihydroxy-5-((4-(2-methylpyridin-3-yl)phenyl)sulfonyl)pyridin-3-yl)(methyl)amino)benzonitrile]
0.01 to 10	CCCCc1nc(O)c(S(=O)(=O)c2ccc(-c3ccccc3C(=O)N(C)C)cc2)c(O)c1N(CC)c1cc(C)cc(C)c1 [Example 140, 4′-((6-butyl-5-((3,5-dimethylphenyl)(ethyl)amino)-2,4-dihydroxypyridin-3-yl)sulfonyl)-N,N-dimethyl-[1,1′-biphenyl]-2-carboxamide]

Same assay, conditions: HEK293 cells stably expressing human APJ receptor; inhibition of forskolin-mediated cAMP production; read-out: Human APJ cAMP Potency range

EC50 [nM]	Structure (SMILES)
0.01 to 10	CCCCc1nc(O)c(S(=O)(=O)c2ccc(-c3ccnc(F)c3C)cc2)c(O)c1N(C)c1cccc(C#N)c1 [AB-005, 3-((2-butyl-5-((4-(2-fluoro-3-methylpyridin-4-yl)phenyl)sulfonyl)-4,6-dihydroxypyridin-3-yl)(methyl)amino)benzonitrile]
0.01 to 10	CCCCc1nc(O)c(S(=O)(=O)c2ccc(-c3ccc(F)nc3)cc2)c(O)c1N(CC)c1ccccc1 [Example 002, 6-butyl-5-(ethyl(phenyl)amino)-3-((4-(6-fluoropyridin-3-yl)phenyl)sulfonyl)pyridine-2,4-diol]
0.01 to 10	CCCCc1nc(O)c(S(=O)(=O)c2ccc(C3CC3)cc2)c(O)c1N(CC)c1ccccc1 [Example 004, 6-butyl-3-((4-cyclopropylphenyl)sulfonyl)-5-(ethyl(phenyl)amino)pyridine-2,4-diol]

Same assay, conditions: hAPJ cAMP EC50 Potency range, HEK293 cells stably expressing human APJ receptor; inhibition of forskolin-mediated cAMP production; Table 1

Structure (SMILES)	EC50 [nM]
CCCCc1nc(O)c(C(=O)N2CCC(c3ccccc3F)C2)c(O)c1N(CC)c1ccccc1 (centres unmarked) [Example 075, (6-butyl-5-(ethyl(phenyl)amino)-2,4-dihydroxypyridin-3-yl)(3-(2-fluorophenyl)pyrrolidin-1-yl)methanone]	0.01 to 10
